Source: patent US12187717B2, “Compound and use thereof in treating autoimmune diseases” (PARENCHYMA BIOTECH INC., priority 2022, dated 2025)

Tests used:
[1] = Pharmacokinetic parameters after oral or intravenous administration; assay type: in vivo; conditions: rats
Protocol: For rats, an oral administration group was fasted for 16 hours, and an intravenous administration group was subjected to intravenous administration with 10 mL/kg of solution prepared by completely dissolving Compound 6 in an ethanol-Cremophor EL mixture corresponding to 7.5% (v/v) of the administered dose, and then diluting in phosphate buffered saline so as to be the final ethanol:Cremophor EL:phosphate buffered saline (0.375:0.375:9.25, v/v/v), without fasting, at the dose concentration listed in Table 3. The oral administration group was supplied with food about 4 hours after administration. Blood collection was performed on the intravenous administration group after 0.083, 0.5, 1, 2, 4, 8, 24 hours from the administration and on the oral administration group after 0.5, 1, 2, 4, 8, 12, 24 hours from the administration, and plasma was recovered using centrifugation. In the recovered plasma, the drug concentration in the plasma was measured using UHPLC-MS/MS method.

CYP2C9 = CYP2C9 (Homo sapiens, UniProt P11712); test: CYP isoenzyme activity; assay type: in vitro ADME; conditions: 10 μM
Chain of CYP2C9 (P11712 whole entry): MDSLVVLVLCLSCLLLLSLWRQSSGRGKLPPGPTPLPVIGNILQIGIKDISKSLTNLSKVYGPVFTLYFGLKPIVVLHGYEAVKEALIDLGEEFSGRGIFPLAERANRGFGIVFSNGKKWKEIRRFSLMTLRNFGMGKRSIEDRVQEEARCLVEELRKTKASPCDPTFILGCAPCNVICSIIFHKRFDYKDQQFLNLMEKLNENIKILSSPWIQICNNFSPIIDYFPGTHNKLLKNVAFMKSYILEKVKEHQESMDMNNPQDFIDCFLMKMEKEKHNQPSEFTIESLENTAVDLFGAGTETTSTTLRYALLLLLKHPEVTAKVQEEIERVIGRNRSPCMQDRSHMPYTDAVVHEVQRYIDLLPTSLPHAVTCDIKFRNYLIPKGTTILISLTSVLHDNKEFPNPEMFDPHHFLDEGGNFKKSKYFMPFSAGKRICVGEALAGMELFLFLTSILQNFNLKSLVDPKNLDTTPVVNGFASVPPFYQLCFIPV

CYP1A2 = target: T1, CYP1A2 (Homo sapiens, UniProt P05177); test: CYP isoenzyme activity; assay type: in vitro ADME; conditions: 10 μM
T1 sequence (P05177 1-516): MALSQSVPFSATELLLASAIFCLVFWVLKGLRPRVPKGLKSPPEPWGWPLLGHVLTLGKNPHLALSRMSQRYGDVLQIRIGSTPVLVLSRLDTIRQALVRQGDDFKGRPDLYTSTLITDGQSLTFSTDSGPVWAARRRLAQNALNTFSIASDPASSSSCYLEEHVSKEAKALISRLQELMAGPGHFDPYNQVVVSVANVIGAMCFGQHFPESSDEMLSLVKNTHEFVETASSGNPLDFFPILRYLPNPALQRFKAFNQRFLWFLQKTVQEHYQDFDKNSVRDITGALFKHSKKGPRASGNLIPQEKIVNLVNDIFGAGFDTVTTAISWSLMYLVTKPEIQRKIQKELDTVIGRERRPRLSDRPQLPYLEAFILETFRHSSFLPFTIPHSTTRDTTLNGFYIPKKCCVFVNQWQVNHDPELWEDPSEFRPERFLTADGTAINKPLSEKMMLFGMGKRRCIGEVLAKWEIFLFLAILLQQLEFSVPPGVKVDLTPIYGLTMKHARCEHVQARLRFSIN

CYP2C19 = CYP2C19 (Homo sapiens, UniProt P33261); test: CYP isoenzyme activity; assay type: in vitro ADME; conditions: 10 μM
Chain of CYP2C19 (P33261 whole entry): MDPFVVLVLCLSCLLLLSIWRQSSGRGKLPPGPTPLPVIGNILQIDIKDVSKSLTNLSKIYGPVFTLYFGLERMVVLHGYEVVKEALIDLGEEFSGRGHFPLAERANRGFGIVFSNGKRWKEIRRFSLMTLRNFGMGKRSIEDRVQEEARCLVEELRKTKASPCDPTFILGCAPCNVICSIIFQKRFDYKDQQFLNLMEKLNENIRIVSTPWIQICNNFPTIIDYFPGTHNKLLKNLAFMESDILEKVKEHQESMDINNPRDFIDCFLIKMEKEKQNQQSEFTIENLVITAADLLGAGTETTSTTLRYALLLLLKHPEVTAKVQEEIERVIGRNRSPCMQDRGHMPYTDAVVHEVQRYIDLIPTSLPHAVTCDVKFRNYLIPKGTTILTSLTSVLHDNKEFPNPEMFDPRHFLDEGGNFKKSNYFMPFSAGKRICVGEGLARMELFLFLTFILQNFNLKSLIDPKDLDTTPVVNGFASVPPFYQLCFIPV

[2] = pH-metric solubility and logP (SIRIUS T3); assay type: physicochemical; conditions: pH-metric results, SIRIUS T3
Protocol: After dissolving Compound 6 in ethanol, the solubility was measured and analyzed using a SIRIUS T3 machine.

CYP2D6 = CYP2D6 (Homo sapiens, UniProt P10635); conditions: 2 days, 10 μM
Chain of CYP2D6 (P10635 whole entry): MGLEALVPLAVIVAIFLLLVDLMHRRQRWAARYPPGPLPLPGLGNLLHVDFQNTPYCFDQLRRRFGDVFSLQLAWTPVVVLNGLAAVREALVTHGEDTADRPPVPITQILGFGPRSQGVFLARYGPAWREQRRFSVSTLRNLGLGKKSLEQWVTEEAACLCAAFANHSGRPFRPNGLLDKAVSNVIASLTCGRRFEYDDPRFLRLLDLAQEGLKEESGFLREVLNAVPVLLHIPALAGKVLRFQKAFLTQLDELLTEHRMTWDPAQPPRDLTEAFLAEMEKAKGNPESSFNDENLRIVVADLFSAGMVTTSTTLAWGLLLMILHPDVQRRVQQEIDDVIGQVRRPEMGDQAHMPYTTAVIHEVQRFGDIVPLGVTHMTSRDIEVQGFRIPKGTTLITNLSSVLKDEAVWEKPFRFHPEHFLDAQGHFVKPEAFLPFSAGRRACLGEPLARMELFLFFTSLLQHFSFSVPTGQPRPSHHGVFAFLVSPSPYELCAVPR

CYP3A4 = CYP3A4 (Homo sapiens, UniProt P08684); conditions: 2 days, 10 μM
Chain of CYP3A4 (P08684 whole entry): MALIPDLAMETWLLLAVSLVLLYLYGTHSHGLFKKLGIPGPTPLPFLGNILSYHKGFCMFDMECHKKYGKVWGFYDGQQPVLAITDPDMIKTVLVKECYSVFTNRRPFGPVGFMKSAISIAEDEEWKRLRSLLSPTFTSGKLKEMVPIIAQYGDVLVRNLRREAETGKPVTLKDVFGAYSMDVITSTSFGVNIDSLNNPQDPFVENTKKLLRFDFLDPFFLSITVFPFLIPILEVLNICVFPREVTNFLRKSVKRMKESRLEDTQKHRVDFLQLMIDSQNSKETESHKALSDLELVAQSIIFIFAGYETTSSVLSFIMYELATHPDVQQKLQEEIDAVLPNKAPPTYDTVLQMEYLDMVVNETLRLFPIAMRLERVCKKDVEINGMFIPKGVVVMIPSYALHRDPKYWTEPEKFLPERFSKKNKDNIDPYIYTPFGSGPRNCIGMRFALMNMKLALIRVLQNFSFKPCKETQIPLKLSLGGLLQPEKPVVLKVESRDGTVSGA
Protocol: Live human hepatocyte cell lines (Corning, Cat No. 454551) were collected using a plating medium, seeded on a 24-well plate so that a cell density thereof was 0.4×10^6 cells/well, and cultured for 2 to 4 hours. After replacing the plating medium with a hepatocyte culture medium, the hepatocytes were cultured for 24 hours. After culturing for 24 hours, hepatocytes were treated with Compound 6 at 1, 5, 25 µM. The medium containing the compound was changed every 24 hours for 2 days. The cultured cells were recovered to prepare mRNA samples. mRNA was extracted from the recovered cells by a phenol-chloroform sedimentation method using TRIZOL reagent (Invitrogen, Cat No. 15596018). From the isolated RNA, cDNA was synthesized by reverse transcription, followed by measuring drug metabolizing enzymes CYP1A2, CYP2C9, CYP2C19, CYP2B6, and CYP3A4 through real-time PCR analysis using the Quant Studio™ 7 Flex Real-Time PCR System (Applied Biosystems, CA). Relative values of the enzyme expression levels were compared by the ΔΔct method using GAPDH as a control enzyme. Herein, one (1) fold was set using the control. Results are expressed as % of control compared to control sample.

[3] = rat, plasma, Intravenous (IV), 1 mg/kg
[4] = rat, plasma, Oral (PO), 10 mg/kg
[5] = rat, plasma, Oral (PO), 100 mg/kg
[6] = Oral (PO), 10 mg/kg (reference dose, dose ratio 1)
[7] = Oral (PO), 100 mg/kg relative to 10 mg/kg (dose ratio 10.0)

## O=C(Cc1c[nH]c2ccc(Cl)cc12)Nc1nc2ccccc2s1 [Comparative Example 1, N-(benzo[d]thiazol-2-yl)-2-(5-chloro-1H-indol-3-yl)acetamide, reference compound]
[1]; [3]
  AUC(0-t): 183 ng·h/mL
  C0: 406 ng/mL
  clearance: 7.17 mL/min/kg
  half-life: 48 min
[1]; rat, plasma, Intravenous (IV), 1 mg/kg, read-out: Vdss
  Vd: 0.311 L/kg
[1]; [4]
  AUC(0-t): 366 ng·h/mL
  Cmax: 126 ng/mL
  Tmax: 60 min
  half-life: 54 min
[1]; rat, plasma, Oral (PO), 10 mg/kg, read-out: Bioavailability (F %)
  bioavailability: 20%
[1]; [5]
  AUC(0-t): 644 ng·h/mL
  Cmax: 152 ng/mL
  Tmax: 30 min
  half-life: 408 min
[1]; [6]
  AUClast Ratio: 1.0
  Cmax ratio: 1.0
[1]; [7]
  AUClast Ratio: 1.8
  Cmax ratio: 1.2
CYP2C9
  CYP2C9 activity: 91.9 % of Control Activity
CYP1A2
  CYP1A2 activity: 64.6 % of Control Activity
CYP2C19
  CYP2C19 activity: 24.4 % of Control Activity
  inhibition of the enzyme activity of CYP2C19: 24.4%
[2]
  logP: 2.8
  pH-metric solubility, Molarity: 3.65 μM
  pH-metric solubility, Weight/ml: 1.248 μg/ml
CYP2D6
  CYP2D6 activity: 93.3 % of Control Activity
CYP3A4
  CYP3A4 activity: 107.6 % of Control Activity
